Here are results for 1 compound from patent US8829213B2, “Liver X receptor agonists” (The University of Chicago, priority 2009, dated 2014).

Test [1] relates to LDLR−/− mice. The test is described as follows: Atherosclerotic lesion quantification in LDLR−/− mice fed an atherogenic diet. In kind it is in vivo. As to conditions: 8 weeks. Here is the method:
(§1) Eight-week old male LDLR−/− mice on a C57BL/6 background (obtained from Jackson Laboratory) were fed an atherogenic diet (TD94059, Harlan TEKLAD, Madison, Wis.) for 8 weeks. During the same period, the mice received Compound 1 daily by gavage at a dose of 3 or 5 mg/kg in a microemulsion prepared by the method described in Gao et al., Int J Pharm 1998, 161:75-86). The control group (vehicle) received a microemulsion without Compound 1. After 8 weeks, the mice were fasted for 4 hours and anesthetized with ketamine (100 mg/kg) and xylazine (10 mg/kg). A blood sample was collected from the retro-orbital plexus of each mouse. 200 μl of plasma was fractionated on tandem Superose 6 fast protein liquid chromatography columns (Reardon et al., 2001). Cholesterol and triglyceride in the even-numbered fast protein liquid chromatography fractions and in plasma samples were measured using commercial kits (Stanbio Laboratory, Boerne, Tex.).
The mice were then perfused transcardially with PBS and then paraformaldehyde. The hearts and upper vasculatures were removed and prepared for histology as described in Reardon et al., Arterioscler Thromb Vasc Biol 2001, 21:1011-1016.
Lesions in the innominate artery were quantified using 4 digitally captured oil red O-stained 10 μm sections, separated by 100 μm and located 150-450 μm distal to the branch point of the innominate artery from the aortic arch. Lesions in the ascending thoracic aorta were assessed from three sections separated by 100 μm and located 100-300 μm below the apex of the lesser curvature of the aortic arch. Aortic sinus lesions were evaluated from 3 sections, separated by 100 μm and beginning at the site of appearance of the coronary artery. OpenLab software version 3.1.5 was used in the quantification.

The subject of test [2] is LDLR−/− mice. Put plainly: Reduction of plasma cholesterol and triglyceride levels in LDLR−/− mice fed an atherogenic diet. It counts as in vivo. As to conditions: 8 weeks. Here is the method: as §1
The next test has as its system human LXRα or LXRβ. Put plainly: Luciferase-based reporter gene assay for LXR agonism. It counts as cell-based. As to conditions: HEK293 cells co-transfected with human LXRα or LXRβ, 48 hours. Here is the method:
The ability of Compound 1 to act as an LXR agonist was tested using a luciferase-based reporter gene assay according to the method described in Graham et al., Virology, 1973, 52:456. The assay is described below:
Wells of a 48-well plate were seeded with 50,000 human embryonic kidney (HEK293) cells in 0.25 mL of Dulbecco's modified Eagle's media containing 10% charcoal-stripped fetal bovine serum (DMEM+10% CS-FBS). HEK293 cells were co-transfected with various plasmid DNAs using a calcium phosphate co-precipitation method (Graham et al., Virology, 1973, 52:456). To each well was added 0.25 mL of a transfection mix (1.36 mL transfection components and 11.5 mL DMEM+10% CS-FBS) containing 60 ng of a firefly luciferase-based reporter plasmid, 60 ng of pSG5 containing human LXRα or LXRβ cDNA, 0.6 ng of the sea pansy luciferase normalization plasmid phRL-TK (Promega), and 220 ng of pBS/SK+II. […] Firefly and sea pansy luciferase activities in the lysate were measured using a dual luciferase assay (Promega) and a Monolight luminometer. […] Fold activation of the firefly luciferase reporter plasmid was calculated from normalized relative light units in the presence and absence of the test compound.

Setting [3] is: daily gavage 3 or 5 mg/kg, vs vehicle.

`CC(/C=C/C(O)(C(F)(F)F)C(F)(F)F)C1CCC2C3C[C@H](O)[C@@H]4C[C@H](O)CCC4(C)C3CCC12C` (some centres unmarked) [Compound 1]: the “mean atherosclerotic lesion area, aortic root” value with LDLR−/− mice [1] (3 mg/kg/day) was “significantly reduced”. In the test on LDLR−/− mice [1] (5 mg/kg/day), the “atherosclerotic plaque size, ascending aorta arch” value was “significantly reduced”; the “atherosclerotic plaque size, innominate artery” value is given as “significantly reduced”; the “mean atherosclerotic lesion area, aortic root” value is reported as “significantly reduced”. In addition, in the test with LDLR−/− mice [2] (3 mg/kg daily gavage), the HDL cholesterol level result is recorded as “not”, the VLDL cholesterol level result is “reduced” and the triglyceride levels result is “reduced”. Further, in the test with LDLR−/− mice [2] (5 mg/kg daily gavage), the HDL cholesterol level result was “not”, the LDL cholesterol level result is recorded as “reduced”, the VLDL cholesterol level result is reported as “reduced” and the triglyceride levels result is “reduced”. Further, in the test on LDLR−/− mice [2] (setting [3]), the “cholesterol level in the blood” value is listed as “marked decrease” and the “triglyceride level in the blood” value is on record as “marked decrease”. For the same compound, the “LXR agonist activity (fold activation of firefly luciferase reporter)” value with human LXRα or LXRβ is listed as “very effective LXR agonist”.
